The values that follow come from patent US20050096360A1, “Inhibitors of semicarbazide-sensitive amine oxidase (SSAO) and VAP-1 mediated adhesion useful for treatment of diseases” (priority 2003, published 2005).

Common to all, as to format: in vivo
Data set [1] concerns carrageenan-induced paw edema in Sprague Dawley rats. In words: Carrageenan-induced rat paw edema. Particulars: for paw swelling: 100 mg/kg i.p. 15 minutes prior to carrageenan, 60, 120, 180 min, p<0.05. The protocol:
Female Sprague Dawley rats were used and compounds of the invention were injected i.p. at 100 mg/kg 15 minutes prior to carrageenan exposure. The control group was injected with an equal volume of vehicle (PBS). Edema in the paws was induced as previously described by injecting 50 μl of a 0.5% solution of carrageenan (Type IV Lambda, Sigma) in saline with a 27-G needle s.c. in the right foot pat. (See Whiteley P. E. and Dalrymple S. A. (1998) Models of inflammation: carrageenan-induced paw edema in the rat, in Current Protocols in Pharmacology. Enna S J, Williams M, Ferkany J W, Kenaki T, Porsolt R E and Sullivan J P, eds., pp 5.4.1-5.4.3, John Wiley & Sons, New York) The size of the tested foot of each animal was measured volumetrically, before induction of edema, and at 60, 120, and 180 min after carrageenan induction.
Briefly, SSAO inhibitors (30 mg/kg), indomethacin (3 mg/kg) and PBS were administered orally to rats 1 hour after carrageenan injections.
To investigate further the role of SSAO inhibition in the inflammatory response, studies were carried out to assess the effect of SSAO inhibition on prostaglandin E2 (PGE2) levels. Animals were divided into four therapeutic groups of eight rats each. […] The fourth group received 3 mg/kg of dexamethasone, i.p. 1 hour before paw inflammation. Three hours after carrageenan injection, rats were asphyxiated with CO2 and their hind paws removed. The paws were lacerated with a scalpel, suspended off the bottom of a polypropylene 1.5 ml tube with a micropipette tip and centrifuged to express the inflammatory fluid. The volume collected from each paw was determined and the fluid was analyzed by ELISA for PGE2 production using a commercial kit (R&D Systems, Minneapolis, Minn.) according to the manufacturer's instructions. […] Data were analyzed with GraphPad Prism software (San Diego, Calif.) by Dunnett's test following analysis of variance.

In data set [2] the test system is LPS-induced endotoxemia in C57B1/6J female mice. In words: LPS-induced endotoxemia and LPS/D-galactosamine shock. Conditions: for survival, first 14 hours: LPS 2 mg/kg + D-galactosamine 300 mg/kg i.p., PBS 40%. The protocol: Eight female mice per group received i.p. injections of 5 mg/kg LPS. […] Dexamethasone (3 mg/kg) was administered i.p. at the same time. Blood was collected 1, 2, 4, and 8 hours after LPS injection and circulating TNF-α and IL-6 levels were measured by ELISA (R&D Systems). Asterisk * indicates p<0.01.
Survival data for the first 14 hours is presented.
In sepsis exposure of endothelial cells of all organs to elevated levels of LPS and inflammatory cytokines leads to upregulation of adhesion molecules and chemokines, which results in an increase in the tethering, rolling and transmigration of leukocytes (Pawlinski R. et al. (2004) Blood 103:1342). LPS-induced endotoxemia is a well-characterized model of systemic inflammation and thus can be used to investigate the putative role of SSAO inhibition in these inflammatory mechanisms. Sepsis was induced in C57B1/6J female mice by i.p. administration of 5 mg/kg of LPS. […] Dexamethasone was administered i.p, at a concentration of 3 mg/kg 1 hr prior to disease induction. Blood was drawn from the retroorbital plexus of anesthetized animals and sera was collected and frozen until time of cytokine measurements. IL-1β, TNF-α, and IL-6 concentrations were determined by ELISA using commercial kits (R&D Systems, Minneapolis, Minn.) according to the manufacturer's instructions. […] Data were analyzed with GraphPad Prism software (San Diego, Calif.) by Dunnett's test following analysis of variance. […] 2 mg/kg LPS together with 300 mg/kg D-galactosamine (GalN, Sigma), both dissolved in PBS, were administered to mice by i.p. injection. At the indicated time points animals from the different therapeutic groups received 200 μl of vehicle (PBS) or 30 mg/kg (2-phenylallyl)hydrazine by oral administration.

A short description of data set [3]: Acute toxicity studies in mice. Conditions: female, C57B1/6, mouse, in vivo, Day 7 values. Here is the method:
(§1) Intraperitoneal (i.p.) and intravenous (i.v.) LD50 values for the compounds of Examples 8 and 10, as well as mofegiline, the allylamine compound described in Example 18, were determined in mice. Six-week old C57B1/6 female mice were divided in groups of five and administered a single i.p or i.v. injection of compound dissolved in PBS (10-100 mg/kg in 100 ul i.v.; 30-500 mg/kg in 200 ul i.p.). Control groups were administered the same volume of PBS i.p. or i.v. Appearance and overt behavior were noted daily, and body weight was measured before compound administration (Day 1) and on Days, 3, 5 and 7. After seven days, animals were euthanized and their liver, spleen and kidneys weighted.
(§2) Acute toxicity effects for mofegiline included tremors (40 mg/kg i.v.; 100 mg/kg i.p.) and clonic convulsions and labored breathing (100 mg/kg i.v.; 200 mg/kg i.p.). […] All deaths occurred within 24 hours after drug administration. […] Thus, there is no indication of the cause of death for any of the compounds tested.

The test system of another data set is C57B1/6 female mice. Put plainly: Acute toxicity studies in mice. Conditions: for acute toxicity effects observed: 100 mg/kg i.v.; for dose causing convulsions and labored breathing: i.p. (see Table 2). Here is the method:
as §1, §2

Setting [4] is: 50 mg/kg orally 60 min prior to 5 mg/kg LPS i.p.
[5] abbreviates: ip, single i.p. injection, read-out: LD50 intraperitoneal.
The mark [6] stands for this setting: iv, single i.v. injection, read-out: LD50 intravenous.

Counter-ions that a name gives are not always drawn. Like-named read-outs stand apart in the source and are kept apart here. A value given as a limit tells only on which side of the number the result lay.

Take `C=C(CNN)c1ccccc1` [Example 2, Hydrochloride]: the “PGE2 production in paw exudate” value in data set [1] (50 mg/kg oral 1 hour prior to carrageenan, 3 hours after injection, equivalent to dexamethasone) is “significantly reduce”. Moreover, the paw volume entry in data set [1] (50 mg/kg oral 1 hour prior to carrageenan, FIG. 11A) is recorded as “reduces”. For the same compound, the paw swelling result in data set [1] is “clearly and significantly reduced”. Moreover, in data set [2] (setting [4]), the “levels of circulatory IL-6” value is recorded as “significantly reduced” and the “levels of circulatory TNF-α” value is listed as “significantly reduced”. The “survival, first 14 hours” value in data set [2] (30 mg/kg oral at 0 and 8 hours (2×)) was 80%. Also, the “survival, first 14 hours” value in data set [2] (30 mg/kg oral once (1×)) came to 60%.
`C=C(CNN)c1ccc(F)cc1.Cl` [Example 8, N-[2-(4′-fluorophenyl)-allyl]-hydrazine Hydrochloride]: the LD50 at 7 days in data set [3] (setting [5]) was 350 mg/kg; in data set [3] (setting [6]) it was more than 100 mg/kg. Besides, in the data set on C57B1/6 female mice, the “acute toxicity effects observed” value is “only tremor”. Further, in the data set on C57B1/6 female mice, the “dose causing convulsions and labored breathing” value is “greater than 350 mg/kg”. Further, the paw swelling entry in data set [1] is “clearly and significantly reduced”.
`Cl.NNC/C(=C/F)c1ccccc1` [Example 10, (E)-1-fluoro-2-phenyl-3-hydrazinopropene Hydrochloride]: in data set [3] (setting [5]), the LD50 at 7 days amounted to 250 mg/kg. Also, the LD50 at 7 days in data set [3] (setting [6]) was more than 100 mg/kg. In the data set on C57B1/6 female mice, the “acute toxicity effects observed” value is recorded as “only tremor”; the “dose causing convulsions and labored breathing” value is reported as “greater than 250 mg/kg”.
